Measurements: the supplement of paper PMC9663587

Legend:
[1] = compound: CCc1cnn2c(NCc3ccc[n+]([O-])c3)cc(N3CCCC[C@H]3CCO)nc12
LEE011/Ribociclib [2] = compound: T1, CN(C)C(=O)c1cc2cnc(Nc3ccc(N4CCNCC4)cn3)nc2n1C1CCCC1 [LEE011/Ribociclib]
Doxorubicin = compound: COc1cccc2c1C(=O)c1c(O)c3c(c(O)c1C2=O)C[C@@](O)(C(=O)CO)C[C@@H]3O[C@H]1C[C@H](N)[C@H](O)[C@H](C)O1 [Doxorubicin]
Pictilisib/GDC0941 = compound: CS(=O)(=O)N1CCN(Cc2cc3nc(-c4cccc5[nH]ncc45)nc(N4CCOCC4)c3s2)CC1 [Pictilisib/GDC0941]
Ceritinib/LDK378 = compound: Cc1cc(Nc2ncc(Cl)c(Nc3ccccc3S(=O)(=O)C(C)C)n2)c(OC(C)C)cc1C1CCNCC1 [Ceritinib/LDK378]
[3] = compound: Cc1nn(C)c(COc2ccc(N3CCN(S(=O)(=O)N(C)C)CC3)cc2)c1-c1cccc2c(CCCOc3cccc4ccccc34)c(C(=O)O)n(CCN3CCOCC3)c12
YKL-5-124 = compound: C=CC(=O)Nc1ccc(C(=O)Nc2[nH]nc3c2CN(C(=O)N[C@H](CN(C)C)c2ccccc2)C3(C)C)cc1 [YKL-5-124]; test: increase in dead-cell fraction, 72 h; higher = more death;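 further: breast cancer cell lines in 384-well plates, stained with Hoechst plus LIVE/DEAD far red dye and imaged, cells above an LDR intensity threshold counted dead, Hoechst-negative corpses included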
BSJ-03-123 = compound: CC(=O)c1c(C)c2cnc(Nc3ccc(N4CCN(CCOCCOCCOCCNC(=O)COc5cccc6c5C(=O)N(C5CCC(=O)NC5=O)C6=O)CC4)cn3)nc2n(C2CCCC2)c1=O [BSJ-03-123]; test: as above
[4] = compound: CC(=O)c1c(C)c2cnc(Nc3ccc(N4CCNCC4)cn3)nc2n(C2CCCC2)c1=O; test: as above
[5] = compound: CCN1CCN(Cc2ccc(Nc3ncc(F)c(-c4cc(F)c5nc(C)n(C(C)C)c5c4)n3)nc2)CC1; test: as above
Neratinib/HKI272 = compound: CCOc1cc2ncc(C#N)c(Nc3ccc(OCc4ccccn4)c(Cl)c3)c2cc1NC(=O)/C=C/CN(C)C [Neratinib/HKI272]; test: as above
[6] = compound: CCc1cnn2c(NCc3ccc[n+]([O-])c3)cc(N3CCCC[C@H]3CCO)nc12; test: as above
LEE011/Ribociclib [7] = compound: T1, LEE011/Ribociclib; test: as above
THZ531 = compound: CN(C)C/C=C/C(=O)Nc1ccc(C(=O)N2CCC[C@@H](Nc3ncc(Cl)c(-c4c[nH]c5ccccc45)n3)C2)cc1 [THZ531]; test: as above
THZ1 = compound: CN(C)C/C=C/C(=O)Nc1ccc(C(=O)Nc2cccc(Nc3ncc(Cl)c(-c4c[nH]c5ccccc45)n3)c2)cc1 [THZ1]; test: as above
Flavopiridol = compound: CN1CC[C@H](c2c(O)cc(O)c3c(=O)cc(-c4ccccc4Cl)oc23)[C@H](O)C1 [Flavopiridol]; test: as above
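Wherever GR50, 72 h is given: breast cancer and non-malignant breast epithelial cell lines, Deep Dye Drop or Dye Drop imaging, nine half-log doses, GR normalized to time-zero plates and DMSO-only controls.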

Cell Line: CAMA1
- GR50, 72 h [1]: 0.0146 µM
- GR50, 72 h (LEE011/Ribociclib [2]): 0.0104 µM
- GR50, 72 h (Doxorubicin): 0.00747 µM
- GR50, 72 h (Pictilisib/GDC0941): 1.55 µM
- GR50, 72 h (Ceritinib/LDK378): 1.8 µM
- GR50, 72 h [3]: > 10 µM
- increase in dead-cell fraction (YKL-5-124; 0.001 µM): 0.0009
- increase in dead-cell fraction (YKL-5-124; 0.003162 µM): 0.0059
- increase in dead-cell fraction (YKL-5-124; 0.01 µM): 0.0122
- increase in dead-cell fraction (YKL-5-124; 0.03162 µM): 0.0047
- increase in dead-cell fraction (YKL-5-124; 0.1 µM): 0.006
- increase in dead-cell fraction (YKL-5-124; 0.3162 µM): 0.0148
- increase in dead-cell fraction (YKL-5-124; 1 µM): -0.0034
- increase in dead-cell fraction (YKL-5-124; 3.162 µM): 0.01
- increase in dead-cell fraction (YKL-5-124; 10 µM): 0.322
- increase in dead-cell fraction (BSJ-03-123; 0.001 µM): -0.0067
- increase in dead-cell fraction (BSJ-03-123; 0.003162 µM): -0.0023
- increase in dead-cell fraction (BSJ-03-123; 0.01 µM): 0.0007
- increase in dead-cell fraction (BSJ-03-123; 0.03162 µM): -0.0025
- increase in dead-cell fraction (BSJ-03-123; 0.1 µM): 0.0035
- increase in dead-cell fraction (BSJ-03-123; 0.3162 µM): -0.0021
- increase in dead-cell fraction (BSJ-03-123; 1 µM): 0.0045
- increase in dead-cell fraction (BSJ-03-123; 3.162 µM): -0.0077
- increase in dead-cell fraction (BSJ-03-123; 10 µM): 0.0255
- increase in dead-cell fraction ([4]; 0.0003162 µM): -0.0052
- increase in dead-cell fraction ([4]; 0.001 µM): 0.0045
- increase in dead-cell fraction ([4]; 0.003162 µM): -0.006
- increase in dead-cell fraction ([4]; 0.01 µM): -0.0044
- increase in dead-cell fraction ([4]; 0.03162 µM): -0.0065
- increase in dead-cell fraction ([4]; 0.1 µM): -0.0028
- increase in dead-cell fraction ([4]; 0.3162 µM): 0.0013
- increase in dead-cell fraction ([4]; 1 µM): 0
- increase in dead-cell fraction ([4]; 3.162 µM): -0.0024
- increase in dead-cell fraction ([5]; 0.001 µM): -0.0054
- increase in dead-cell fraction ([5]; 0.003162 µM): -0.0135
- increase in dead-cell fraction ([5]; 0.01 µM): -0.0075
- increase in dead-cell fraction ([5]; 0.03162 µM): -0.0084
- increase in dead-cell fraction ([5]; 0.1 µM): 0.0035
- increase in dead-cell fraction ([5]; 0.3162 µM): -0.0078
- increase in dead-cell fraction ([5]; 1 µM): -0.0025
- increase in dead-cell fraction ([5]; 3.162 µM): -0.0084
- increase in dead-cell fraction ([5]; 10 µM): 0.0143
- increase in dead-cell fraction (Neratinib/HKI272; 0.0003162 µM): 0.0013
- increase in dead-cell fraction (Neratinib/HKI272; 0.001 µM): 0.0021
- increase in dead-cell fraction (Neratinib/HKI272; 0.003162 µM): -0.0002
- increase in dead-cell fraction (Neratinib/HKI272; 0.01 µM): 0.0022
- increase in dead-cell fraction (Neratinib/HKI272; 0.03162 µM): 0.0081
- increase in dead-cell fraction (Neratinib/HKI272; 0.1 µM): 0.0011
- increase in dead-cell fraction (Neratinib/HKI272; 0.3162 µM): 0.0067
- increase in dead-cell fraction (Neratinib/HKI272; 1 µM): 0.0021
- increase in dead-cell fraction (Neratinib/HKI272; 3.162 µM): 0.0342
- increase in dead-cell fraction ([6]; 0.0001 µM): -0.0004
- increase in dead-cell fraction ([6]; 0.0003162 µM): -0.0044
- increase in dead-cell fraction ([6]; 0.001 µM): 0.0031
- increase in dead-cell fraction ([6]; 0.003162 µM): 0.0113
- increase in dead-cell fraction ([6]; 0.01 µM): 0.0533
- increase in dead-cell fraction ([6]; 0.03162 µM): 0.153
- increase in dead-cell fraction ([6]; 0.1 µM): 0.46
- increase in dead-cell fraction ([6]; 0.3162 µM): 0.518
- increase in dead-cell fraction ([6]; 1 µM): 0.56
- increase in dead-cell fraction (LEE011/Ribociclib [7]; 0.001 µM): -0.0064
- increase in dead-cell fraction (LEE011/Ribociclib [7]; 0.003162 µM): -0.0056
- increase in dead-cell fraction (LEE011/Ribociclib [7]; 0.01 µM): -0.0011
- increase in dead-cell fraction (LEE011/Ribociclib [7]; 0.03162 µM): -0.0009
- increase in dead-cell fraction (LEE011/Ribociclib [7]; 0.1 µM): 0.006
- increase in dead-cell fraction (LEE011/Ribociclib [7]; 0.3162 µM): 0.0058
- increase in dead-cell fraction (LEE011/Ribociclib [7]; 1 µM): 0.011
- increase in dead-cell fraction (LEE011/Ribociclib [7]; 3.162 µM): 0.0045
- increase in dead-cell fraction (LEE011/Ribociclib [7]; 10 µM): 0.0049
- increase in dead-cell fraction (THZ531; 0.0001 µM): 0.001
- increase in dead-cell fraction (THZ531; 0.0003162 µM): -0.0014
- increase in dead-cell fraction (THZ531; 0.001 µM): -0.0002
- increase in dead-cell fraction (THZ531; 0.003162 µM): -0.005
- increase in dead-cell fraction (THZ531; 0.01 µM): 0.0035
- increase in dead-cell fraction (THZ531; 0.03162 µM): 0.0054
- increase in dead-cell fraction (THZ531; 0.1 µM): 0.0126
- increase in dead-cell fraction (THZ531; 0.3162 µM): 0.0499
- increase in dead-cell fraction (THZ531; 1 µM): 0.189
- increase in dead-cell fraction (THZ1; 0.0001 µM): -0.0002
- increase in dead-cell fraction (THZ1; 0.0003162 µM): 0.0023
- increase in dead-cell fraction (THZ1; 0.001 µM): -0.002
- increase in dead-cell fraction (THZ1; 0.003162 µM): -0.0017
- increase in dead-cell fraction (THZ1; 0.01 µM): 0.0023
- increase in dead-cell fraction (THZ1; 0.03162 µM): 0.0135
- increase in dead-cell fraction (THZ1; 0.1 µM): 0.0187
- increase in dead-cell fraction (THZ1; 0.3162 µM): 0.0397
- increase in dead-cell fraction (THZ1; 1 µM): 0.187
- increase in dead-cell fraction (Flavopiridol; 0.0001 µM): 0.0013
- increase in dead-cell fraction (Flavopiridol; 0.0003162 µM): 0.0009
- increase in dead-cell fraction (Flavopiridol; 0.001 µM): 0.0022
- increase in dead-cell fraction (Flavopiridol; 0.003162 µM): 0.0011
- increase in dead-cell fraction (Flavopiridol; 0.01 µM): 0.0016
- increase in dead-cell fraction (Flavopiridol; 0.03162 µM): 0.0052
- increase in dead-cell fraction (Flavopiridol; 0.1 µM): 0.0067
- increase in dead-cell fraction (Flavopiridol; 0.3162 µM): 0.0207
- increase in dead-cell fraction (Flavopiridol; 1 µM): 0.107
